Here are results for two substances from patent publication US20100261246A1, “METHOD FOR INHIBITING TELOMERASE REACTION” (PANASONIC CORPORATION, priority 2009, published 2010).

Test [1] concerns TaKaLa LA Taq Hot Start Version (polymerase reaction). The test can be described thus: PCR control band in the separate telomerase reaction / PCR experiment. It is filed as biochemical. The settings on record: 10 μM, no addition of λDNA. Here is the method:
(§1) Moreover, effects of inhibiting telomerase by TMPyP and anionic phthalocyanines were compared in Comparative Example 3 and Example 4 to 5 below. In these experiments, the S7700 kit was used similarly to the aforementioned Comparative Examples 1 to 2 and Examples 1 to 3. However, in Comparative Examples 1 to 2 and Examples 1 to 3 described above, the reagents required only for the telomerase reaction and PCR were all mixed first, and the telomerase reaction and PCR were carried out sequentially by regulating the reaction temperature. To the contrary, in the following Comparative Example 3 and Examples 4 to 5, only the reagents required for the telomerase reaction were first mixed to carry out a telomerase reaction, and a part of the reaction solution and the reagents required for the PCR were mixed to carry out the PCR.
(§2) Next, 4 μL of a solution prepared by diluting the solution after the telomerase reaction 20 times with milliQ water, 0.2 μL of 50× dNTP Mix, 0.2 μL of TS primer, 0.2 μL of Primer Mix, 0.1 μL of TaKaLa LA Taq Hot Start Version (manufactured by Takara Bio Inc.), 1 μL of 10× LA PCR buffer II (Mg^2+ plus) (buffer solution included in TaKaLa LA Taq Hot Start Version), and 4.3 μL of milliQ water were mixed to prepare a PCR solution in a total volume of 10 μL. Then, PCR was carried out by allowing this PCR solution to stand under temperature conditions in which a thermo cycle of: 30 sec at 95° C.; 30 sec at 59° C.; and 30 sec at 72° C. was repeated 30 times.
(§3) Finally, the solution after the PCR was electrophoresed on a 10% polyacrylamide gel, and stained with GelStar Nucleic Acid Stain (manufactured by Takara Bio Inc.). […] In the order from the leftmost lane, the results with final concentrations of TMPyP being 0 M, 0.1 μM, 0.3 μM, 1 μM, 3 μM and 10 μM are shown.

A further test deals with telomerase. Put plainly: Telomerase reaction carried out first, then PCR of the diluted reaction solution, gel electrophoresis, with or without λDNA. It is filed as biochemical. The settings on record: final concentrations 0.1 to 10 μM. Here is the method: as §1
In addition, in each of the following Comparative Example 3 and Examples 4 to 5, experiments were carried out with or without addition of a λDNA in the telomerase reaction. Addition of the λDNA was intended to reproduce for mimicking the conditions in which a large amount of double-stranded DNAs are present as in the case of genomic DNAs in cells, and to study the effects of inhibiting telomerase by TMPyP or anionic phthalocyanines even under conditions more approximate to those in vivo, by adding a λDNA.
Telomerase reaction solution in a total volume of 10 μL were prepared by mixing 1 μL of 10× TRAP Reaction buffer, 0.2 μL of 50× dNTP Mix, 0.2 μL of TS primer, 4 μL of the telomerase solution prepared in Comparative Example 1, 2 μL of the TMPyP aqueous solution, and 2.6 μL of milliQ water (the reaction solutions having final TMPyP concentrations of 0 M, 0.1 μM, 0.3 μM, 1 μM, 3 μM and 10 μM were prepared, respectively). Then, the reaction solutions were stood under a condition of 30° C. for 60 min to allow a telomerase reaction to be carried out.
as §2, §3
On the other hand, experiments in which a λDNA was added to the telomerase reaction solution were also carried out. More specifically, in preparing the telomerase reaction solution described above, 2.6 μL of a λDNA solution (manufactured by Takara Bio Inc.) was mixed in place of mixing 2.6 μL of milliQ water. Other telomerase reaction temperature/time schedule, PCR solution preparation condition, PCR temperature/time schedule, electrophoresis condition were just the same.

telomerase, sequence (O14746 whole entry): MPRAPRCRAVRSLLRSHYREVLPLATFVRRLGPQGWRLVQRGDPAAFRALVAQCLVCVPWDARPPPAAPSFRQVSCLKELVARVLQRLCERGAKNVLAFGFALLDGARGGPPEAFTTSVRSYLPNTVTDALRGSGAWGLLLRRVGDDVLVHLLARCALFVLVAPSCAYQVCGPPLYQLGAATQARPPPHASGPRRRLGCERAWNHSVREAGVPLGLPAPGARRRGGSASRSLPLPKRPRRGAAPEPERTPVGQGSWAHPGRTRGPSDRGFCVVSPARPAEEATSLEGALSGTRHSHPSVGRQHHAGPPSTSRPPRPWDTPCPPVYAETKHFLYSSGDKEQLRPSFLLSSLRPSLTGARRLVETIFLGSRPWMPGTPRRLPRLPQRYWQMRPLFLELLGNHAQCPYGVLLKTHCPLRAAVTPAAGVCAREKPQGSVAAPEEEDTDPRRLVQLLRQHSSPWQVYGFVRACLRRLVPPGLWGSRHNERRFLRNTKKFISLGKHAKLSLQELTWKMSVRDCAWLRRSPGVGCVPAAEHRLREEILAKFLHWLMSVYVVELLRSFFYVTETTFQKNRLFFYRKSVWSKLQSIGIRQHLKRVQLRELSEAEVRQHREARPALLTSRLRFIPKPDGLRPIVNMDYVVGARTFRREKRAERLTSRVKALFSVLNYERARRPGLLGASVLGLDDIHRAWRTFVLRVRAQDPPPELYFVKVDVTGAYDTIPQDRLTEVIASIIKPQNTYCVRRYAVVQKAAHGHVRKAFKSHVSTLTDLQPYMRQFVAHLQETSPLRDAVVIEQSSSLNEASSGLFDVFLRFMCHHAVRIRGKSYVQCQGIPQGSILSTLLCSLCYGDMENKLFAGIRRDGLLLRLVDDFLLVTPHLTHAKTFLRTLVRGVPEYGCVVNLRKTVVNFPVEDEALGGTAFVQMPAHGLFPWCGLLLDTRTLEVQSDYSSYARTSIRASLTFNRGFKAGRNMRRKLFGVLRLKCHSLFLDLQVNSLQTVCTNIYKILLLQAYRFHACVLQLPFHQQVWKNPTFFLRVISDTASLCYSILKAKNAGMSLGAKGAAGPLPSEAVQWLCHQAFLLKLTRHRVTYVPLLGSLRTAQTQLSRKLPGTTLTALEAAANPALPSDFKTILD

For the substance “Copper(II) phthalocyanine-3,4′,4″,4′″-tetrasulfonic acid tetrasodium salt [CuPC]”, the “amplification of the PCR control (band)” value in test [1] is “not inhibited”. Further, the “inhibition of the telomerase reaction (band of telomerase reaction product)” value in the test with telomerase (in the presence of λDNA) is “can efficiently inhibit the telomerase reaction”; in the test with telomerase (no addition of λDNA) it was “inhibited with higher concentration”.
For the substance “Nickel(II) phthalocyanine tetrasulfonic acid tetrasodium salt [NiPC]”, the “amplification of the PCR control (band)” value in test [1] was “not inhibited”. The “inhibition of the telomerase reaction (band of telomerase reaction product)” value with telomerase (in the presence of λDNA) is recorded as “can efficiently inhibit the telomerase reaction”; with telomerase (no addition of λDNA) it was “inhibited with higher concentration”.
